In ChEMBL document CHEMBL4725244, “Immunomodulation-mediated anticancer activity of a novel compound from Brugmansia suaveolens leaves” (Bioorg Med Chem, 2020):
Active and inactive are the calls of the source. No cut-off for these calls is given here.

What was measured:
A549 = experiment: (§1) Immunomodulation-mediated anticancer activity against human A549 cells assessed as human PBMC-mediated inhibition of cancer cell viability at 10 uM pretreated with effector PBMC cells for 48 hrs followed by co-culturing of target cancer cells with PBMC at ratio of 1:10 and measured after 24 hrs by ELISA (reference value: 5%); assay type: functional
[1] = as §1, with “MCF7” for “A549”, “1:2.5 to 1:20” for “1:10”, “MTT assay” for “ELISA (reference value: 5%)”; assay type: functional
[2] = (§2) Immunomodulation-mediated anticancer activity against human MCF7 cells assessed as human PBMC-mediated cell cycle arrest by measuring proportion of cells at G2M phase at 10 uM pretreated with effector PBMC cells for 48 hrs followed by co-culturing of target cancer cells with PBMC at ratio of 1:10 for 24 hrs by propidium iodide staining based flow cytometry (reference value: 10.5%); assay type: functional
[3] = Immuno-modulation activity in human PBMC assessed as increase in cell proliferation at 10 uM after 48 hrs by MTT assay relative to control; assay type: functional
[4] = as §2, with “S” for “G2M”, “19.6%)” for “10.5%)”; assay type: functional
[5] = Cytotoxicity against human MCF7 cells assessed as reduction in cell viability at 5 to 20 uM measured after 24 hrs by MTT assay relative to control; assay type: cell-based; conditions: dose 5-20 µM, read-out: INH
[6] = Immuno-modulation activity in human PBMC assessed as increase in IFNgamma secretion at 10 uM after 48 hrs by ELISA relative to control; assay type: functional
[7] = as §2, with “subbG1” for “G2M”, “4.8%)” for “10.5%)”; assay type: functional
[8] = as §1, with “MCF7” for “A549”, “MTT assay” for “ELISA”; assay type: functional
[9] = (§3) Immunomodulation-mediated anticancer activity against human MCF7 cells assessed as human PBMC-mediated increase in ROS generation at 10 uM pretreated with effector PBMC cells for 48 hrs followed by co-culturing of target cancer cells with PBMC at ratio of 1:10 for 6 hrs by DCFH-DA staining based fluorometric analysis (reference value: 7%); assay type: functional
[10] = Immuno-modulation activity in human PBMC assessed as increase in IL-2 secretion at 10 uM after 48 hrs by ELISA relative to control; assay type: functional
[11] = as §3, with “decrease” for “increase”, “mitochondrial membrane potential” for “ROS generation”, “6” for “48”, “24” for “6”, “rhodamine 123” for “DCFH-DA”, “5%)” for “7%)”; assay type: functional
[12] = as §2, with “measuring increase in” for “measuring”, “subG1” for “G2M”, “relative to control” for “(reference value: 10.5%)”; assay type: functional
PBMC = experiment: Immuno-modulation activity in human PBMC assessed as increase in cell proliferation at 20 uM after 48 hrs by MTT assay; assay type: functional, tissue-based
[13] = as §2, with “G0G1” for “G2M”, “64.6%)” for “10.5%)”; assay type: functional

## COc1ccc(OC)c2c1OC(=O)CC[C@H](O)C2=O
A549
  inhibition at 10 µM: 32%
[1]
  Activity: <=70%
[2]
  Activity: 59%
[3]
  Activity: 92%
[4]
  Activity: 13.2%
[5]
  cytotoxicity at 24 h, up to 20 µM: < 30%
[6]
  fold change (FC): 3
[7]
  Activity: 28.4%
[8]
  inhibition at 10 µM: 67%
[9]
  Activity: 79%
[10]
  fold change (FC): 3
[11]
  inhibition at 10 µM: 66%
[12]
  fold change (FC): 5
PBMC
  Activity: Active
[13]
  Activity: 51.8%
